Test results: patent publication US20200002670A1, “Generation of Endocrine Progenitor Cells from Human Pluripotent Stem Cells Using Small Molecules” (Novo Nordisk A/S, priority 2013, published 2020)

Assays:
Assay type in all cases: cell-based, human
[1] = test system: pancreatic endoderm cells; assay: NGN3/NKX2.2 double positive cells by immunostaining and InCell imaging after PE to EP differentiation
Protocol: After three days of EP differentiation, at EP day 4, media were aspirated followed by fixation of the cells at room temperature for 30 min with 4% paraformaldehyde (VWR, 97.131.000). Cells were washed with PBS and permeabilized with 0.5% Triton X-100 (Sigma, 9002-93-1) for 10 min, washed and blocked in 0.5% TNB-buffer (Perkin Elmer) for 30 min at room temperature. Primary antibodies, sheep anti-NGN3 (R&D systems #AF3444) and rabbit anti-NKX2.2 (Sigma #HPA003468) were diluted 1:1000 and 1:500, respectively, in 0.1% Triton X-100 in PBS and added to each well for overnight incubation at 4° C. Cells were washed three times with PBS. DAPI (4′,6-diamidino-2-phenylindole, Applichem, A4099.0010) and secondary antibodies, Alexa Fluor 488 donkey anti-goat and Alexa Fluor 594 donkey anti-rabbit (both Invitrogen) were diluted 1:1000 in 0.1% Triton X-100 in PBS and added to each well for 45 min. Cells were washed five times and left in 200 μL PBS for imaging. Imaging was performed using the InCell Analyzer 2000 (GE Healthcare). 4 fields per well with 10× objective were captured. The total cell number based in the DAPI counterstaining and the number of NGN3/NKX2.2 double positive cells was determined using InCell Developer Toolbox 1.8 (GE Healthcare). The fraction of NGN3/NKX2.2 double positive cells were quantified using the InCell developer toolbox software (GE Healthcare) and normalized to the combined protocol K&N (example 2) on each plate and the % effect was calculated (% effect NGN3/NKX2.2 double positive=((S−Sneg)/(|Spos−Sneg|))*100). Wherein S is % NGN3/NKX2.2 double positive cells for a given compound combination, Sneg and Spos are % NGN3/NKX2.2 double positive cells for the negative control and combined protocol K&N, respectively).
An EP cell population was prepared according to examples 1 and 2. However, in addition to the reagents used in example 2 the small molecules listed in table 3 were added for three days at concentrations specified in table 3 below in concentrations as shown. After three days of EP differentiation media were aspirated followed by fixation of the cells at room temperature for 30 min with 4% paraformaldehyde (VWR, 97.131.000). Cells were washed with PBS and permeabilized with 0.5% Triton X-100 (Sigma, 9002-93-1) for 10 min, washed and blocked in 0.5% TNB-buffer (Perkin Elmer) for 30 min at room temperature. Primary antibodies, sheep anti-NGN3 (R&D systems #AF3444) and rabbit anti-NKX2.2 (Sigma #HPA003468) were diluted 1:1000 and 1:500, respectively, in 0.1% Triton X-100 in PBS and added to each well for overnight incubation at 4° C. Cells were washed three times with PBS. DAPI (4′,6-diamidino-2-phenylindole, Applichem, A4099.0010) and secondary antibodies, Alexa Fluor 488 donkey anti-goat and Alexa Fluor 594 donkey anti-rabbit (both Invitrogen) were diluted 1:1000 in 0.1% Triton X-100 in PBS and added to each well for 45 min. Cells were washed five times and left in 200 μL PBS for imaging.
Imaging was performed using the InCell Analyzer 2000 (GE Healthcare). 4 fields per well with 10× objective were captured. The total cell number based in the DAPI counterstaining and the number of NGN3/NKX2,2 double positive cells was determined using InCell Developer Toolbox 1.8 (GE Healthcare). The fraction of NGN3/NKX2.2 double positive cells were quantified using the InCell developer toolbox software (GE Healthcare) and normalized to the combined protocol K&N on each plate and the % effect was calculated (% effect NGN3/NKX2.2 double positive=((S−Sneg)/(|Spos−Sneg|))*100). Wherein S is % NGN3/NKX2.2 double positive cells for a given compound combination, Sneg and Spos are % NGN3/NKX2.2 double positive cells for the negative control and combined protocol K&N, respectively).

[2] = test system: CHiPS2 (iPS) derived pancreatic endoderm cells; assay: NGN3/NKX2.2 double positive cells by imaging, small molecule combinations, CHiPS2 (iPS); conditions: Method of example 2 + 2.5 μM DAPT
Protocol: (§1) An EP cell population was prepared according to example 2. However, in addition to the reagents used in example 2, certain small molecules listed in table 3 were added either alone or in combination during the three days of EP differentiation. After three days of EP differentiation media were aspirated followed by fixation of the cells at room temperature for 30 min with 4% paraformaldehyde (VWR, 97.131.000). Cells were washed with PBS and permeabilized with 0.5% Triton X-100 (Sigma, 9002-93-1) for 10 min, washed and blocked in 0.5% TNB-buffer (Perkin Elmer) for 30 min at room temperature. […] Cells were washed three times with PBS. DAPI (4',6-diamidino-2-phenylindole, Applichem, […]10) and secondary antibodies, Alexa Fluor 488 donkey anti-goat and Alexa Fluor 594 donkey anti-rabbit (both Invitrogen) were diluted 1:1000 in 0.1% Triton X-100 in PBS and added to each well for 45 min. Cells were washed five times and left in 200 μL PBS for imaging. Imaging was performed using the InCell Analyzer 2000 (GE Healthcare). 4 fields per well with 10× objective were captured.

[3] = test system: SA121 (hES) derived pancreatic endoderm cells; assay: NGN3/NKX2.2 double positive cells by imaging, small molecule combinations, SA121 (hES); conditions: Method of example 2 + 2.5 μM DAPT
Protocol: as §1

[4] = 10 μM added to method of example 2 for three days
[5] = 0.5 μM added to method of example 2 for three days
[6] = 5 μM added to method of example 2 for three days
[7] = 0.1 μM added to method of example 2 for three days
[8] = 1 μM added to method of example 2 for three days

| SMILES | % effect NGN3/NKX2.2 double positive cells [1, 4] [%] | % effect NGN3/NKX2.2 double positive cells [1, 6] [%] | % effect NGN3/NKX2.2 double positive cells [1, 8] [%] | also measured |
| --- | --- | --- | --- | --- |
| Cn1cnc2cc3c(Nc4cccc(Br)c4)ncnc3cc21 [BPIQ-I] | 350 |  |  |  |
| C[C@H](NC(=O)Cc1cc(F)cc(F)c1)C(=O)N[C@@H]1C(=O)N(C)c2ccccc2-c2ccccc21 [CompE] |  |  |  | % effect NGN3/NKX2.2 double positive cells ([1]; 5 nM added to method of example 2 for three days): 250%; % effect NGN3/NKX2.2 double positive cells ([1]; 50 nM added to method of example 2 for three days): 325%; % effect NGN3/NKX2.2 double positive cells ([1]; 500 nM added to method of example 2 for three days): 395% |
| C[C@H](NC(=O)Cc1cc(F)cc(F)c1)C(=O)N[C@H](C(=O)OC(C)(C)C)c1ccccc1 [DAPT] |  |  |  | % effect NGN3/NKX2.2 double positive cells [1, 5]: 150%; % effect NGN3/NKX2.2 double positive cells ([1]; 2.5 μM added to method of example 2 for three days): 350%; % effect NGN3/NKX2.2 double positive cells ([1]; 25 μM added to method of example 2 for three days): 300%; % effect NGN3/NKX2.2 double positive cells, CHiPS2 (iPS) [2]: 167%; % effect NGN3/NKX2.2 double positive cells, SA121 (hES) [3]: 165% |
| CN(C)c1ccc(/C=C2/C(=O)Nc3ccccc32)cc1 [DMBI, (Z)-3-[4-(Dimethylamino)benzylidenyl]indolin-2-one] | 231 | 167 |  |  |
| O=C(c1ccccc1)c1ccc(N2CCOCC2)cc1O [DNA-PK inhibitor V] |  | 370 |  |  |
| COc1cc2ncnc(Nc3ccc(F)c(Cl)c3)c2cc1OCCCN1CCOCC1 [Gefitinib] |  | 325 | 311 | % effect NGN3/NKX2.2 double positive cells [1, 7]: 222% |
| CCOc1nc(NC(=O)Cc2cc(OC)ccc2OC)cc(N)c1C#N [JNK VIII] | 308 | 315 | 204 | % effect NGN3/NKX2.2 double positive cells [1, 7]: 160%; % effect NGN3/NKX2.2 double positive cells [1, 5]: 156% |
| CC(C)CC(NC(=O)C(Cc1ccccc1)CC(O)C(Cc1ccccc1)NC(=O)OC(C)(C)C)C(=O)NC(Cc1ccccc1)C(N)=O (stereo not shown) [L6] |  |  |  | % effect NGN3/NKX2.2 double positive cells ([1]; 50 μM added to method of example 2 for three days): 150% |
| COc1cccc(-c2cc(=O)c3ccccc3o2)c1N [PD98059] |  |  | 165 |  |
| CCC(=O)Nc1ccc2ncnc(Nc3cccc(Br)c3)c2c1 [PD174265] | 274 | 374 | 240 |  |
| c1ccc2c(-c3ccncc3)c[nH]c2c1 [Rockout] | 199 | 208 |  |  |
| Cn1cc(/C=C2\C(=O)Nc3ccc(S(N)(=O)=O)cc32)c2ccccc21 [Syk inhibitor] |  |  | 157 |  |
| Cc1cccc(-c2nc(C(C)(C)C)[nH]c2-c2ccc3c(c2)OCO3)n1.Cl [TGFbRI inhibitor III] |  | 182 |  |  |
| CSc1nc(-c2ccc(F)cc2)c(-c2ccnc(NC(C)c3ccccc3)c2)[nH]1 (stereo not shown) [p38 inhibitor III] | 153 | 191 |  |  |
